From paper PMC5515969, “Effects of 31 FDA approved small-molecule kinase inhibitors on isolated rat liver mitochondria” (Archives of Toxicology, 2016)
Structures can show the parent of a compound that is named as a salt. Where two headings read alike, the source gives them in different places. Marks after values point to notes of the source that are not given here.

Legend:
[1] = system: isolated rat liver mitochondria; assay: Mitochondrial swelling (absorbance at 535 nm); format: biochemical; conditions: difference in signal between KI and DMSO treated samples at the end of experiments; on Swelling 5XCmax: key: 0 indicates that the drug had no effects (negative)
[2] = system: isolated rat liver mitochondria; conditions: positive control alamethicin treated samples
[3] = system: isolated rat liver mitochondria; assay: Mitochondrial inner membrane potential (MMP), Rhodamine 123; format: biochemical; conditions: difference in signal between KI and DMSO treated samples at the end of experiments
Excerpt: Fig. 3 KI effects on mitochondrial inner membrane potential (MMP). […] In a, c, data are means and standard derivations from three separate experiments. *p < 0.05 as compared to DMSO-treated samples at the end of experiments. In b, data are means of two independent experiments

[4] = system: isolated rat liver mitochondria; assay: Mitochondrial oxygen consumption (glutamate/malate or succinate driven, state 4 and state 3); format: biochemical; conditions: DMSO treated samples set as 1; on State 3 respiration driven by succinate at 10XCmax: key: 0 indicates that the drug had no effects (negative); on State 3 respiration driven by succinate at 1XCmax: key: 0 indicates that the drug had no effects (negative)
Experimental: Rats were anesthetized by an intraperitoneal injection of Nembutal and the liver perfused with PBS to remove the blood. The liver was then cut into small pieces and homogenized using a Dounce type homogenizer in the ice-cold isolation buffer (IB) containing 200 mM sucrose, 10 mM Tris-MOPS, 1 mM EGTA (pH 7.4). The sample was then centrifuged at 600g for 10 min. The supernatant was further centrifuged at 7500g for 10 min, and the pellets was washed once with the IB and centrifuged again at 7500g for 10 min to collect mitochondria. […] Before drug treatment, the protein concentration was adjusted to 1 mg/ml using appropriate buffer. […] Briefly, mitochondrial and cytosolic fractions from four different preparations using four rats were diluted using the Laemmli protein loading buffer and subject to SDS-PAGE with 4–20% gradient gels. The proteins were blotted to PVDF membranes and detected using antibodies against GAPDH, ATP5A, UQCRC2, SDHB, and NDUFB8.
The aliquoted stock solutions were kept for less than one month and each tube was used only once. The KIs were added to the mitochondria at 1:1000 dilutions. […] The Cmax data were from clinical trials which used FDA recommend dosages, route of administration, and duration. […] The final concentration of DMSO for drug treatment was always 0.1%, and control treatments were 0.1% DMSO.
Briefly, mitochondria were incubated with the KIs for 5 min, and then split evenly and loaded to the sample tubes of two Oxytherm systems (Hansatech Instruments Ltd), with one system used for measuring glutamate/malate driven respiration and the other succinate-driven respiration, both of which were defined as state 4 respiration. After 3 min, ADP was added to measure the maximal oxygen consumption rate, which was defined as state 3 respiration. […] The oxygen consumption rate of DMSO-treated samples (controls) was set as 1.

[5] = target: T1, RCC II (Rattus norvegicus, UniProt P21913+Q641Z9+Q6PCT8+Q920L2); assay: RCC II activity in submitochondrial particles; format: biochemical; parameters: key: activity relative to DMSO-treated controls (control set as 1 = 100%); conditions: relative to DMSO treated samples
T1 construct: Submitochondrial particles were prepared by subjecting the intact mitochondria to three successive freeze–thaw cycles; from tissue; host or cells: rat liver mitochondria, used as submitochondrial particles
T1 sequence (Q920L2 35-656): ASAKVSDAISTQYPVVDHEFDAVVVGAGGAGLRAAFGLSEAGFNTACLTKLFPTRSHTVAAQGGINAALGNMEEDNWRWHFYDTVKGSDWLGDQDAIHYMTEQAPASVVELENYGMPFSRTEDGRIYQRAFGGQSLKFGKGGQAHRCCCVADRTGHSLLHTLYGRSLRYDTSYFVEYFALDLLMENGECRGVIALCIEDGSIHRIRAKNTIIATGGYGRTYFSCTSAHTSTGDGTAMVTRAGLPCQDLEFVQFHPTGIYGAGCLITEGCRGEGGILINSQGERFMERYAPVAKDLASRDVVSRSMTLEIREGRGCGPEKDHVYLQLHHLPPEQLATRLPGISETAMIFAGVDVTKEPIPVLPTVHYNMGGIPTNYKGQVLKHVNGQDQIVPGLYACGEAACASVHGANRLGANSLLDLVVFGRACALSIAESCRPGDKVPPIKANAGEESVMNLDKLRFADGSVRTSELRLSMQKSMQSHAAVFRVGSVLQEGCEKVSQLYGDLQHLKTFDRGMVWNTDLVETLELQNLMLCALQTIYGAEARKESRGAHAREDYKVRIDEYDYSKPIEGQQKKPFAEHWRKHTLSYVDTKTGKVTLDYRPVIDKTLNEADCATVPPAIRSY
T1 sequence (P21913 31-282): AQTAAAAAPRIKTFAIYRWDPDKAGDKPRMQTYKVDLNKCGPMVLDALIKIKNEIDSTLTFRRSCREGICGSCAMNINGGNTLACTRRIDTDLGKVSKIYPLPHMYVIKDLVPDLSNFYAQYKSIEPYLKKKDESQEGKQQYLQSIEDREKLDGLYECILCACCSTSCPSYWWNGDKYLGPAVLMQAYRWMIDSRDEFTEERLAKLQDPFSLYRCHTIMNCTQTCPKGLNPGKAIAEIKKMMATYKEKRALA
T1 sequence (Q641Z9 1-169): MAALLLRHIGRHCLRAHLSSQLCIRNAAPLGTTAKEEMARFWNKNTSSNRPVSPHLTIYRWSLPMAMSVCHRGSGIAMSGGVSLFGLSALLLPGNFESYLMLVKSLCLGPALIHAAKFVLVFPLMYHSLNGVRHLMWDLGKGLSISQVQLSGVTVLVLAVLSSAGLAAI
T1 sequence (Q6PCT8 57-159): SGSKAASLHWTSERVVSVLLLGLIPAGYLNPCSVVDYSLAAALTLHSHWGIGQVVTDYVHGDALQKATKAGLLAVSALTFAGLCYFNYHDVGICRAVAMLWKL
Experimental: (§1) KIs were incubated with submitochondrial particles (1 mg/ml) for 15 min and then RCC I–V activities measured. […] The activities of DMSO-treated samples (controls) were set as 1. […] The difference between the activity from rotenone-containing buffer and rotenone-absent buffer was considered as RCC I activity. […] For measuring RCC I/V and II activity, the changes in absorbance at 340 and 600 nm, respectively, were determined every 1 min for 6 min. For measuring RCC III and RCC IV, the changes in absorbance at 550 nm were measured every 10 s for 2 min.

[6] = system: RCC I; assay: RCC I activity in submitochondrial particles; format: biochemical, rat; parameters: key to RCC I at 10XCmax / RCC I at 100XCmax / RCC I at 50XCmax / RCC I at 30XCmax / RCC I at 20XCmax: activity relative to DMSO-treated controls (control set as 1 = 100%); conditions: 10XCmax; relative to DMSO treated samples
Experimental: as §1

[7] = parameters: method as in product labeling; conditions: ref product labeling, cited from earlier work; for Labeling for cardiotoxicity: BBW: black box warning, W&P: Warnings and Precautions
[8] = system: isolated rat liver mitochondria; assay: Mitochondrial ROS production (CM-H2DCFDA); conditions: DMSO treated samples set as 1
[9] = system: RCC V; assay: RCC V activity in submitochondrial particles; format: biochemical, rat; conditions: relative to DMSO treated samples; on RCC V at 5XCmax: key: 0 indicates that the drug had no effects (negative)
Experimental: as §1

[10] = cited from earlier work
[11] = cited from earlier work; for DILI potential (based on labeling): 1 = DILI positive, 0 = negative
[12] = read-out: Cmax at µM, therapeutic maximal blood concentration, ref product labeling
[13] = therapeutic maximal blood concentration, ref product labeling

Structure (SMILES) | Swelling 1XCmax [1] | Swelling 2.5XCmax [1] | Cytochrome c release 1XCmax [2] | Cytochrome c release 2.5XCmax [2] | Cytochrome c release 5XCmax [2] | MMP measured by Rhodamine 123 at 1XCmax [3] | MMP measured by Rhodamine 123 at 2.5XCmax [3] | MMP measured by Rhodamine 123 at 5XCmax [3] | MMP measured by Rhodamine 123 at 10XCmax [3] | State 3 respiration driven by succinate at 1XCmax ([4]; 1XCmax) | State 4 respiration driven by succinate at 1XCmax ([4]; 1XCmax) | State 3 respiration driven by succinate at 2.5XCmax ([4]; 2.5XCmax) | State 4 respiration driven by succinate at 2.5XCmax ([4]; 2.5XCmax) | State 3 respiration driven by succinate at 5XCmax ([4]; 5XCmax) | State 4 respiration driven by succinate at 5XCmax ([4]; 5XCmax) | State 3 respiration driven by succinate at 10XCmax ([4]; 10XCmax) | State 4 respiration driven by succinate at 10XCmax ([4]; 10XCmax) | RCC II at 1.0XCmax [5] | RCC II at 2.5XCmax [5] | RCC II at 5XCmax [5] | other results
Cc1cn(-c2cc(NC(=O)c3ccc(C)c(Nc4nccc(-c5cccnc5)n4)c3)cc(C(F)(F)F)c2)cn1 [Nilotinib] | 0 | 0 | 0 | 0 | 0 | 0 | 0 | 0 | 0 | 0 | 0 | 0 | 0 | 0 | 0 | 0 | 0 | 0 | 0 | 0 | Swelling 5XCmax [1]: 0; Swelling 10XCmax [1]: 0; Cytochrome c release 10XCmax [2]: 0; RCC II at 10XCmax [5]: 0; RCC I at 10XCmax [6]: 0; Labeling for cardiotoxicity [7]: BBW: QT Interval Prolongation; Potential for cardiotoxicity (based on labeling) [7]: 1; ROS measured by CM-H2DCFDA at 1XCmax [8]: 0; ROS measured by CM-H2DCFDA at 2.5XCmax [8]: 0; ROS measured by CM-H2DCFDA at 5XCmax [8]: 0; ROS measured by CM-H2DCFDA at 10XCmax [8]: 0; RCC V at 5XCmax [9]: 0; Cmax ([10]; human therapeutic Cmax at FDA recommended dosages, ref product labeling and drug approval packages at the official FDA website): 4.27 µM; Cmax [10, 12]: 4.27 µM; Cmax [10, 13]: 2260 ng/mL
CS(=O)(=O)CCNCc1ccc(-c2ccc3ncnc(Nc4ccc(OCc5cccc(F)c5)c(Cl)c4)c3c2)o1 [lapatinib ditosylate monohydrate] | 0 | 0 | 0 | 0 | 0 | 0 | 0 | 0 | 0 | 0 | 0 | 0 | 0 | 0 | 0 | 0 | 0 | 0 | 0 | 0 | Swelling 5XCmax [1]: 0; Swelling 10XCmax [1]: 0; Cytochrome c release 10XCmax [2]: 7.91±2.25 percentage of the positive control group; RCC II at 10XCmax [5]: 0; RCC I at 10XCmax [6]: 0; Labeling for cardiotoxicity [7]: W&P: Decreased Left Ventricular Ejection Fraction; QT Prolongation; Potential for cardiotoxicity (based on labeling) [7]: 1; ROS measured by CM-H2DCFDA at 1XCmax [8]: 0; ROS measured by CM-H2DCFDA at 2.5XCmax [8]: 0; ROS measured by CM-H2DCFDA at 5XCmax [8]: 0; ROS measured by CM-H2DCFDA at 10XCmax [8]: 0; RCC V at 5XCmax [9]: 0; Cmax [10, 13]: 2430 ng/mL; DILI potential (based on labeling) ([11]; ref product labeling): 1; Labeling for DILI ([11]; in vivo): BBW: fatal DILI
CNC(=O)c1cc(Oc2ccc(NC(=O)Nc3ccc(Cl)c(C(F)(F)F)c3)cc2)ccn1 [sorafenib tosylate] | 0 | 0.29±0.02 | 0 | 0 | 12.12±5.17 percentage of the positive control group | 4037±631* | 4075±739* | 3781±744* | 3380±680* | 0 | 1.50±0.21 | 0.62±0.05 | 1.43±0.06 | 0.40±0.01 | 0 | 0 | 3.34±0.45 | 0 | 0 | 0 | State 4 respiration driven by glutamate/malate at 1XCmax ([4]; 1XCmax): 2.55±0.27; State 3 respiration driven by glutamate/malate at 2.5XCmax ([4]; 2.5XCmax): 1.57±0.06; State 4 respiration driven by glutamate/malate at 2.5XCmax ([4]; 2.5XCmax): 4.92±0.09; State 4 respiration driven by glutamate/malate at 5XCmax ([4]; 5XCmax): 3.69±0.12; State 4 respiration driven by glutamate/malate at 10XCmax ([4]; 10XCmax): 5.00±1.92; RCC II at 10XCmax [5]: 0; RCC I at 10XCmax [6]: 0; Labeling for cardiotoxicity [7]: W&P: Cardiac Ischemia and/or Infarction; QT Interval Prolongation; Potential for cardiotoxicity (based on labeling) [7]: 1; ROS measured by CM-H2DCFDA at 1XCmax [8]: 0; ROS measured by CM-H2DCFDA at 2.5XCmax [8]: 0; ROS measured by CM-H2DCFDA at 5XCmax [8]: 0; ROS measured by CM-H2DCFDA at 10XCmax [8]: 0; RCC V at 10XCmax ([9]; 10XCmax): 65.55±6.34; Cmax [10, 12]: 4.3 µM; DILI potential (based on labeling) ([11]; ref product labeling): 1; Labeling for DILI ([11]; BBW: black box warning, W&P: Warnings and Precautions, ref product labeling): W&P: fatal DILI
